Target: T1, PERK (Homo sapiens, UniProt Q9NZJ5)
T1 construct: GST-PERK (536-1116) cytoplasmic domain was purchased from Invitrogen; purchased Invitrogen PV5106
T1 sequence (Q9NZJ5 536-1116): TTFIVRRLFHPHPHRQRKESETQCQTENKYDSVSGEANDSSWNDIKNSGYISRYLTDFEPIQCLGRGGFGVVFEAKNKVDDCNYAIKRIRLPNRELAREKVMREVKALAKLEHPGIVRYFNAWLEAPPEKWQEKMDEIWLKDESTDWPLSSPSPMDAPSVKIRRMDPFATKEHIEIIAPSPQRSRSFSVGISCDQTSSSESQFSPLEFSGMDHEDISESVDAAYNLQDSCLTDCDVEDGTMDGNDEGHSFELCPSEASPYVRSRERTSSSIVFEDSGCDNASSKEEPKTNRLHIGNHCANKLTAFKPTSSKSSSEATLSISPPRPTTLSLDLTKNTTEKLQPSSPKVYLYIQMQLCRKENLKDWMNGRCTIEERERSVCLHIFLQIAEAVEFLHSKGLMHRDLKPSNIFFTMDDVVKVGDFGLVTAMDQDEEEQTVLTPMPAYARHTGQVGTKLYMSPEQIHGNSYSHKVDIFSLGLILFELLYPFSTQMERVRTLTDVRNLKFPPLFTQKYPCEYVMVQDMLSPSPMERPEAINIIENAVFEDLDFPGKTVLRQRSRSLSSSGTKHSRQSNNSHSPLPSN
Assay: PKR-like Endoplasmic Reticulum Kinase (PERK) Assay (HTRF Format)
Assay type: biochemical
Details: average, in at least one set of experimental runs; read-out: average pIC50 value against PERK (converted)
Description: PKR-like Endoplasmic Reticulum Kinase (PERK) Assay (HTRF Format)
Source of substrate: elF2α: 6-His-Full-length human elF2α is purified from baculovirus expression in Sf9 insect cells. The elF2 protein is buffer exchanged by dialysis into PBS, chemically modified by NHS-LC-Biotin and then buffer exchanged by dialysis into 50 mm TRIS pH 7.2/250 mM NaCl/5 mM DTT. Protein is aliquoted and stored at −80° C.
Assays were performed by adding GST-PERK solution to assay plates containing compounds and pre-incubated for 30 minutes at room temperature. The reaction is initiated by the addition of ATP and EIF2α substrate solution. Quench solution is added following a one hour incubation at room temperature. The plates are covered for 2 hours at room temperature prior to determination of signal. The resulting signal is quantified on a Viewlux Reader (PerkinElmer). The APC Signal is normalized to the Europium signal by transforming the data through an APC/Eu calculation.
Compounds under analysis were dissolved in DMSO to 1.0 mM and serially diluted 1 to 3 with DMSO through eleven dilutions. 0.1 μl of each concentration was transferred to the corresponding well of an assay plate. This creates a final compound concentration range from 0.00017 to 10 μM.
The data for concentration response curves were plotted as % Inhibition calculated with the data reduction formula 100*(1−(U1−C2)/(C1−C2)) versus concentration of compound where U is the unknown value, C1 is the average control value obtained for 1% DMSO, and C2 is the average control value obtained for 0.1 M EDTA. Data were fitted with a curve described by:
where A is the minimum y, B is the maximum y concentration [M], D is the slope factor, and x is the log10 of the compound.
In the above data, pIC50 is defined as −log(IC50) where the IC50 value is expressed in molar units.

**Q.** With `Cn1cc(-c2ccc3c(c2F)CCN3C(=O)Cc2cccc(C(F)(F)F)n2)c2c(N)ncnc21` [Example 137, 5-(4-fluoro-1-{[6-(trifluoromethyl)-2-pyridinyl]acetyl}-2,3-dihydro-1H-indol-5-yl)-7-methyl-7H-pyrrolo[2,3-d]pyrimidin-4-amine] as the molecule, how does the IC50 read?
**A.** ≤ 1 nM

**Q.** With `Nc1nccc2scc(-c3ccc4c(c3)CCN4C(=O)Cc3cc(F)ccc3F)c12` [Example 6, 3-{1-[(2,5-difluorophenyl)acetyl]-2,3-dihydro-1H-indol-5-yl}thieno[3,2-c]pyridin-4-amine] as the molecule, how does the IC50 read?
**A.** ≤ 2.51 nM

**Q.** With `Cn1cc(-c2ccc3c(c2)CCN3C(=O)Cc2ccc(F)cc2F)c2c(N)ncnc21` [Example 102, 5-{1-[(2,4-difluorophenyl)acetyl]-2,3-dihydro-1H-indol-5-yl}-7-methyl-7H-pyrrolo[2,3-d]pyrimidin-4-amine] as the molecule, how does the IC50 read?
**A.** ≤ 2.51 nM

**Q.** For `Cn1cc(-c2ccc3c(c2)CCN3C(=O)Cc2ccccc2)c2c(N)ncnc21` [Example 4, 7-methyl-5-[1-(phenylacetyl)-2,3-dihydro-1H-indol-5-yl]-7H-pyrrolo[2,3-d]pyrimidin-4-amine], which IC50 is on record?
**A.** ≤ 2.51 nM

**Q.** Which IC50 does the source give for `Cn1cc(-c2ccc3c(c2F)CCN3C(=O)Cc2ccccc2)c2c(N)ncnc21` [Example 112, 5-[4-fluoro-1-(phenylacetyl)-2,3-dihydro-1H-indol-5-yl]-7-methyl-7H-pyrrolo[2,3-d]pyrimidin-4-amine] here?
**A.** ≤ 0.316 nM

**Q.** Which IC50 does the source give for `Cn1nc(-c2ccc3c(c2)CCN3C(=O)Cc2cccc(Cl)c2)c2c(N)ncnc21` [Example 42, 3-{1-[(3-chlorophenyl)acetyl]-2,3-dihydro-1H-indol-5-yl}-1-methyl-1H-pyrazolo[3,4-d]pyrimidin-4-amine] here?
**A.** ≤ 2.51 nM

**Q.** How did the IC50 turn out when `Cn1cc(-c2ccc3c(c2)CCN3C(=O)Cc2cc(Cl)ccc2F)c2c(N)ncnc21` [Example 100, 5-{1-[(5-chloro-2-fluorophenyl)acetyl]-2,3-dihydro-1H-indol-5-yl}-7-methyl-7H-pyrrolo[2,3-d]pyrimidin-4-amine] was run?
**A.** ≤ 0.316 nM

**Q.** `Cc1cccc(CC(=O)N2CCc3cc(-c4cn(C5CCNCC5)c5ncnc(N)c45)ccc32)c1` [Example 62, 5-{1-[(3-methylphenyl)acetyl]-2,3-dihydro-1H-indol-5-yl}-7-(4-piperidinyl)-7H-pyrrolo[2,3-d]pyrimidin-4-amine] was tested. Which IC50 did it give?
**A.** ≤ 1 nM

**Q.** For `Nc1ncnc2[nH]cc(-c3ccc4c(c3)CCN4C(=O)Cc3cccc(C(F)(F)F)c3)c12` [Example 148, 5-(1-{[3-(trifluoromethyl)phenyl]acetyl}-2,3-dihydro-1H-indol-5-yl)-1H-pyrrolo[2,3-d]pyrimidin-4-amine], which IC50 is on record?
**A.** ≤ 0.316 nM

**Q.** With `Cn1cc(-c2ccc3c(c2)CCN3C(=O)Cc2cccc(C(F)(F)F)n2)c2c(N)ncnc21` [Example 125, 7-methyl-5-(1-{[6-(trifluoromethyl)-2-pyridinyl]acetyl}-2,3-dihydro-1H-indol-5-yl)-7H-pyrrolo[2,3-d]pyrimidin-4-amine] as the molecule, how does the IC50 read?
**A.** ≤ 1 nM

**Q.** For `Nc1nccc2scc(-c3ccc4c(c3)CCN4C(=O)Cc3cccc(Cl)c3)c12` [Example 22, 3-{1-[(3-chlorophenyl)acetyl]-2,3-dihydro-1H-indol-5-yl}thieno[3,2-c]pyridin-4-amine], which IC50 is on record?
**A.** ≤ 2.51 nM

**Q.** With `Cn1nc(N)c2c(-c3ccc4c(c3)CCN4C(=O)Cc3cccc(C(F)(F)F)c3)cncc21` [Example 143, 1-methyl-4-(1-{[3-(trifluoromethyl)phenyl]acetyl}-2,3-dihydro-1H-indol-5-yl)-1H-pyrazolo[3,4-c]pyridin-3-amine] as the molecule, how does the IC50 read?
**A.** ≤ 1 nM

**Q.** For `CN(C)CCn1cc(-c2ccc3c(c2)CCN3C(=O)Cc2cccc(C(F)(F)F)c2)c2c(N)ncnc21` [Example 134, 7-[2-(dimethylamino)ethyl]-5-(1-{[3-(trifluoromethyl)phenyl]acetyl}-2,3-dihydro-1H-indol-5-yl)-7H-pyrrolo[2,3-d]pyrimidin-4-amine], which IC50 is on record?
**A.** ≤ 1 nM

**Q.** With `Cc1ccc(F)c(CC(=O)N2CCc3cc(-c4cn(C)c5ncnc(N)c45)ccc32)c1` [Example 73, 5-{1-[(2-fluoro-5-methylphenyl)acetyl]-2,3-dihydro-1H-indol-5-yl}-7-methyl-7H-pyrrolo[2,3-d]pyrimidin-4-amine] as the molecule, how does the IC50 read?
**A.** ≤ 1 nM

Source: patent publication US20120077828A1, “CHEMICAL COMPOUNDS” (priority 2010, published 2012)
